Measurements: article PMC10726920 (Cancer Medicine, 2023)
“Also recorded” adds a separate entry of the source. Where two headings read alike, the source gives them in different places.

What was measured:
[1] = tested on: mTOR pathway substrates 4EBP1, S6, AKT; experiment: Immunoblotting of paired bone marrow samples (pretreatment vs Day 8) from trial patients; type: in vivo, human
Source text: Bone marrow aspirates harvested prior to treatment and again prior to drug administration on Day 8 ± 2 of treatment from the same patients were shipped overnight to a central laboratory, where marrow mononuclear cells isolated on Ficoll–Hypaque gradients were lysed under denaturing conditions that preserve protein phosphorylations. Paired whole cell lysates were subjected to SDS‐polyacrylamide gel electrophoresis and immunoblotting as described in the Supplementary Method: Data S1.
Cells were isolated from bone marrow or blood samples using Histopaque-1077 (Millipore-Sigma, St. Louis, MO) step gradients. […] Cells for ex vivo drug exposure were resuspended at a concentration of 1 x 10^6 cells/ml in RPMI 1640 medium containing 10% (v/v) heat-inactivated fetal bovine serum, 50 U/ml penicillin G, 50 µg/ml streptomycin, and 1 mM glutamine.
After samples were dialyzed sequentially into 4 M urea and 0.1% (w/v) SDS, lyophilized and reconstituted in SDS-sample buffer consisting of 4 M urea, 2% (w/v) SDS, […] (pH 6.8 at 4 °C), 10 mM EDTA, and 1% (w/v/) 2-mercaptoethanol, aliquots containing […] of total cellular protein were subjected to SDS-PAGE on gels containing 5-20% polyacrylamide gradients, transferred to nitrocellulose, and probed with antibodies as previously described ^34, 35. […]

[2] = Plasma pharmacokinetics, Cycle 1 (LC-MS, non-compartmental); type: in vivo, human; settings: for half-life / Tmax / concentration at 7 days / AUC(0-t) / Cmax: human, plasma, 3 mg; for concentration at 7 days: after 7 days of dosing
Protocol: Blood samples were obtained on Days 1, 2, and 8 of Cycle 1. […] plasma concentrations were measured using liquid chromatography‐mass spectroscopy. Plasma concentration‐time data were analyzed by standard methods using WinNonlin. Pearson's correlation coefficient (r) was used to assess correlation of group variables. Statistical significance was defined as p < 0.05. Additional details are contained in the Supplementary Method: Data S1.
Blood samples (6 ml, sodium heparin) were obtained during the first cycle of treatment before drug administration on Days 1, 2 and 8; and 0.5, 1, 2, 3, 4, and 8 hours after the oral dose was administered on Day 1 and Day 8. After collection, tubes were immediately cooled in an ice water bath and plasma was isolated by centrifugation (10 minutes; 1,100 - 1,300 x g; 4°C) in a refrigerated centrifuge. Plasma samples were frozen immediately and stored at approximately -70°C or lower until analysis.
Plasma concentration-time data were analyzed by standard non-compartmental methods using WinNonlin (Pharsight, Mountain View, CA). Standard descriptive statistics were used to summarize plasma sapanisertib PK parameters. […] Oral steady-state clearance (ClSS/F) was calculated using the equation, ClSS = Dose/AUCτ.

Structure (SMILES): CC(C)n1nc(-c2ccc3oc(N)nc3c2)c2c(N)ncnc21 [sapanisertib]
- induction of BIMEL and PUMA in trial samples ([1]; five pairs of samples): minimal in one pair of samples (Patient 2) and absent from the other four pairs
- impact on mTOR‐mediated phosphorylation (4EBP1, S6, AKT) in trial samples ([1]; pretreatment vs Day 8 trough, five patients): limited impact; also recorded: little evidence that mTOR‐mediated phosphorylation has been disrupted; also recorded: failed to convincingly demonstrate inhibition
- C max, Mean ± SD ([2]; Cycle 1 Day 1, 3 mg daily oral): 26.1 ± 8.0 ng/mL
- CL, Mean ± SD ([2]; Cycle 1 Day 1, 3 mg daily oral): 22.0 ± 14.2 L/h
- CL, Median (range) ([2]; Cycle 1 Day 1, 3 mg daily oral): 22.0 (5.8–49.2) L/hr
- CL, Mean ± SD ([2]; Cycle 1 Day 8, 3 mg daily oral): 23.3 ± 23.8 L/h
- CL, Median (range) ([2]; Cycle 1 Day 8, 3 mg daily oral): 16.4 (3.2–82.6) L/hr
- peak plasma concentration ([2]; Day 1): 84 nM
- time to peak concentration after drug administration ([2]; Day 1): 2 h
- time to peak concentration after drug administration ([2]; Day 8): 1.2 h
- time of peak concentration (mean) ([2]; Day 8 dose, discussion): 1.5 h
- mean accumulation ratio ([2]; Day 8 versus Day 1 AUCall): 1.4
- half‐life (terminal serum) ([2]; discussion): 8 h
- half-life ([2]; oral, Day 1, read-out: mean elimination half‐life (converted)): 492 ± 294 min
- Tmax ([2]; oral, Day 1, read-out: time to peak concentration, range): 0.5 to 4.1 h
- half-life ([2]; oral, Day 8, read-out: mean half‐life (converted)): 1460 ± 2550 min
- Tmax ([2]; oral, Day 8, read-out: time to peak concentration, range): 0.5 to 2.9 h
- concentration at 7 days ([2]; oral, read-out: median trough concentration): 1.9 ng/mL
- concentration at 7 days ([2]; oral, read-out: trough concentration, range): 0 to 41.6 ng/mL
- AUC(0-t) ([2]; po, Cycle 1 Day 1, 3 mg daily oral, read-out: AUC0–24 h, Mean ± SD): 213 ± 143 ng·h/mL
- AUC(0-t) ([2]; po, Cycle 1 Day 1, 3 mg daily oral, read-out: AUC0–24 h, Median (range)): 213 ng·h/mL
- Cmax ([2]; po, Cycle 1 Day 1, 3 mg daily oral, read-out: C max, Mean ± SD): 26 ng/mL
- Cmax ([2]; po, Cycle 1 Day 1, 3 mg daily oral, read-out: C max, Median (range)): 26.5 ng/mL
- half-life ([2]; po, Cycle 1 Day 1, 3 mg daily oral, read-out: Half‐life, Mean ± SD (converted)): 492 ± 294 min
- half-life ([2]; po, Cycle 1 Day 1, 3 mg daily oral, read-out: Half‐life, Median (range) (converted)): 426 min
- Tmax ([2]; po, Cycle 1 Day 1, 3 mg daily oral, read-out: T max, Mean ± SD): 1.7 ± 1.1 h
- Tmax ([2]; po, Cycle 1 Day 1, 3 mg daily oral, read-out: T max, Median (range)): 2 h
- AUC(0-t) ([2]; po, Cycle 1 Day 8, 3 mg daily oral, read-out: AUC0–24 h, Mean ± SD): 361 ± 337 ng·h/mL
- AUC(0-t) ([2]; po, Cycle 1 Day 8, 3 mg daily oral, read-out: AUC0–24 h, Median (range)): 182 ng·h/mL
- Cmax ([2]; po, Cycle 1 Day 8, 3 mg daily oral, read-out: C max, Mean ± SD): 34.4 ± 20.9 ng/mL
- Cmax ([2]; po, Cycle 1 Day 8, 3 mg daily oral, read-out: C max, Median (range)): 29.4 ng/mL
- half-life ([2]; po, Cycle 1 Day 8, 3 mg daily oral, read-out: Half‐life, Mean ± SD (converted)): 1460 ± 2550 min
- half-life ([2]; po, Cycle 1 Day 8, 3 mg daily oral, read-out: Half‐life, Median (range) (converted)): 678 min
- Tmax ([2]; po, Cycle 1 Day 8, 3 mg daily oral, read-out: T max, Mean ± SD): 1.5 ± 0.7 h
- Tmax ([2]; po, Cycle 1 Day 8, 3 mg daily oral, read-out: T max, Median (range)): 1.2 h
